Experiments:
interferon (α) = test: Cytokine Induction in Human Cells: interferon (α) by ELISA; assay type: cell-based; conditions: PBMC; human PBMCs, incubated 18 to 24 hours, lowest concentration found to induce interferon
Text: (§1) An in vitro human blood cell system was used to assess cytokine induction by compounds of the invention. Activity is based on the measurement of interferon and tumor necrosis factor (α) (IFN and TNF, respectively) secreted into culture media as described by Testerman et. al. In “Cytokine Induction by the Immunomodulators Imiquimod and S-27609”, Journal of Leukocyte Biology, 58, 365–372 (September, 1995).
(§2) Whole blood is collected by venipuncture into EDTA vacutainer tubes from healthy human donors. Peripheral blood mononuclear cells (PBMCs) are separated from whole blood by density gradient centrifugation using Histopaque®-1077 (Sigma Chemicals, St. Louis, Mo.). The PBMCs are suspended at 3–4×10^6 cells/mL in RPMI 1640 medium containing 10% fetal bovine serum, 2 mM L-glutamine and 1% penicillin/streptomycin solution (RPMI complete). The PBMC suspension is added to 48 well flat bottom sterile tissue culture plates (Costar, Cambridge, Mass. or Becton Dickinson Labware, Lincoln Park, N.J.) containing an equal volume of RPMI complete media containing test compound.
(§3) The compounds are solubilized in dimethyl sulfoxide (DMSO). The DMSO concentration should not exceed a final concentration of 1% for addition to the culture wells.
(§4) The solution of test compound is added at 60 μM to the first well containing RPMI complete and serial (three fold or ten fold) dilutions are made. The PBMC suspension is then added to the wells in an equal volume, bringing the test compound concentrations to the desired range. The final concentration of PBMC suspension is 1.5–2×10^6 cells/mL. The plates are covered with sterile plastic lids, mixed gently and then incubated for 18 to 24 hours at 37° C. in a 5% carbon dioxide atmosphere.
(§5) Following incubation the plates are centrifuged for 5–10 minutes at 1000 rpm (˜200×g) at 4° C. The cell culture supernatant is removed with a sterile polypropylene pipet and transferred to sterile polypropylene tubes. Samples are maintained at −30 to −70° C. until analysis. The samples are analyzed for interferon (α) and tumor necrosis factor (α) by ELISA
Interferon (α) concentration is determined by ELISA using a Human Multi-Species kit from PBL Biomedical Laboratories, New Brunswick, N.J.
(§6) The table below lists the lowest concentration found to induce interferon and the lowest concentration found to induce tumor necrosis factor for each compound.

[1] = tested on: tumor necrosis factor (α); test: Cytokine Induction in Human Cells: tumor necrosis factor (α) by ELISA; assay type: cell-based; conditions: PBMC; human PBMCs, incubated 18 to 24 hours, lowest concentration found to induce tumor necrosis factor
Text: as §1, §2, §3, §4, §5
Tumor necrosis factor (α) (TNF) concentration is determined using ELISA kits available from Genzyme, Cambridge, Mass.; R&D Systems, Minneapolis, Minn.; or Pharmingen, San Diego, Calif.
as §6

## Nc1nc2ccccc2c2c1ncn2CCCCNC(=O)OCC1c2ccccc2-c2ccccc21 [Example 4, 9H-9-Fluorenylmethyl N-[4-(4-amino-1H-imidazo[4,5-c]quinolin-1-yl)butyl]carbamate]
Interferon (α)
  minimal effective concentration: > 30 µM
[1]
  minimal effective concentration: > 30 µM

## Nc1nc2ccccc2c2c1ncn2CCCCNC(=O)Nc1ccccc1 [Example 16]
Interferon (α)
  minimal effective concentration: 1.11 µM
[1]
  minimal effective concentration: 10 µM

## Nc1nc2ccccc2c2c1ncn2CCCCNC(=O)Nc1ccc([N+](=O)[O-])cc1 [Example 17]
Interferon (α)
  minimal effective concentration: > 30 µM
[1]
  minimal effective concentration: 30 µM

## CC(C)NC(=O)NCCCCn1cnc2c(N)nc3ccccc3c21 [Example 19]
Interferon (α)
  minimal effective concentration: 1.11 µM
[1]
  minimal effective concentration: 30 µM

## CC(C)(C)NC(=O)NCCCCn1cnc2c(N)nc3ccccc3c21 [Example 20]
Interferon (α)
  minimal effective concentration: 1.11 µM
[1]
  minimal effective concentration: 30 µM

## CCCCOc1ccc(NC(=O)NCCCCn2cnc3c(N)nc4ccccc4c32)cc1 [Example 21]
Interferon (α)
  minimal effective concentration: > 30 µM
[1]
  minimal effective concentration: > 30 µM

## CCCCCCCNC(=O)NCCCCn1cnc2c(N)nc3ccccc3c21 [Example 22]
Interferon (α)
  minimal effective concentration: > 30 µM
[1]
  minimal effective concentration: 10 µM

## Nc1nc2ccccc2c2c1ncn2CCCCNC(=O)Nc1cc(C(F)(F)F)cc(C(F)(F)F)c1 [Example 23]
Interferon (α)
  minimal effective concentration: > 30 µM
[1]
  minimal effective concentration: 10 µM

## CC(C)c1cccc(C(C)C)c1NC(=O)NCCCCn1cnc2c(N)nc3ccccc3c21 [Example 24]
Interferon (α)
  minimal effective concentration: > 30 µM
[1]
  minimal effective concentration: > 30 µM

## CCCCCCNC(=O)NCCCCn1cnc2c(N)nc3ccccc3c21 [Example 25]
Interferon (α)
  minimal effective concentration: 3.33 µM
[1]
  minimal effective concentration: > 30 µM

## CCCNC(=O)NCCCCn1cnc2c(N)nc3ccccc3c21 [Example 26]
Interferon (α)
  minimal effective concentration: 10 µM
[1]
  minimal effective concentration: > 30 µM

## CC(C)c1ccc(NC(=O)NCCCCn2cnc3c(N)nc4ccccc4c32)cc1 [Example 27]
Interferon (α)
  minimal effective concentration: > 30 µM
[1]
  minimal effective concentration: > 30 µM

## N#Cc1cccc(NC(=O)NCCCCn2cnc3c(N)nc4ccccc4c32)c1 [Example 28]
Interferon (α)
  minimal effective concentration: 1.11 µM
[1]
  minimal effective concentration: 3.33 µM

## Nc1nc2ccccc2c2c1ncn2CCCCNC(=O)Nc1cc(Cl)cc(Cl)c1 [Example 29]
Interferon (α)
  minimal effective concentration: > 30 µM
[1]
  minimal effective concentration: 10 µM

## CCCCCNC(=O)NCCCCn1cnc2c(N)nc3ccccc3c21 [Example 30]
Interferon (α)
  minimal effective concentration: 3.33 µM
[1]
  minimal effective concentration: 30 µM

## Nc1nc2ccccc2c2c1ncn2CCCCNC(=O)Nc1cc(C(F)(F)F)ccc1Cl [Example 31]
Interferon (α)
  minimal effective concentration: > 30 µM
[1]
  minimal effective concentration: 10 µM

## CC(C)(C)CC(C)(C)NC(=O)NCCCCn1cnc2c(N)nc3ccccc3c21 [Example 32]
Interferon (α)
  minimal effective concentration: 10 µM
[1]
  minimal effective concentration: 10 µM

## Nc1nc2ccccc2c2c1ncn2CCCCNC(=O)Nc1ccc(Oc2ccccc2)cc1 [Example 33]
Interferon (α)
  minimal effective concentration: > 30 µM
[1]
  minimal effective concentration: > 30 µM

## CCCCc1ccc(NC(=O)NCCCCn2cnc3c(N)nc4ccccc4c32)cc1 [Example 34]
Interferon (α)
  minimal effective concentration: > 30 µM
[1]
  minimal effective concentration: > 30 µM

## Nc1nc2ccccc2c2c1ncn2CCCCNC(=O)NCc1ccccc1 [Example 35]
Interferon (α)
  minimal effective concentration: 1.11 µM
[1]
  minimal effective concentration: 10 µM

## Nc1nc2ccccc2c2c1ncn2CCCCNC(=O)NCCc1ccccc1 [Example 36]
Interferon (α)
  minimal effective concentration: 1.11 µM
[1]
  minimal effective concentration: 10 µM

## COc1ccc(NC(=O)NCCCCn2cnc3c(N)nc4ccccc4c32)cc1 [Example 37]
Interferon (α)
  minimal effective concentration: 1.11 µM
[1]
  minimal effective concentration: 10 µM

## Cc1cc(C)c(NC(=O)NCCCCn2cnc3c(N)nc4ccccc4c32)cc1C [Example 38]
Interferon (α)
  minimal effective concentration: > 30 µM
[1]
  minimal effective concentration: > 30 µM

## Nc1nc2ccccc2c2c1ncn2CCCCNC(=O)NC1CCCCC1 [Example 39]
Interferon (α)
  minimal effective concentration: 1.11 µM
[1]
  minimal effective concentration: 10 µM

## CCc1ccccc1NC(=O)NCCCCn1cnc2c(N)nc3ccccc3c21 [Example 40]
Interferon (α)
  minimal effective concentration: 0.37 µM
[1]
  minimal effective concentration: 3.33 µM
